Patent US10653676B2 (Dana-Farber Cancer Institute, Inc., priority 2010, dated 2020)

Columns and labels:
UCH-L1 = target: T1, UCH-L1 (Homo sapiens, UniProt P09936); test: ubiquitin-AMC assay with UCH-L1; format: biochemical; settings: in vitro
T1 sequence (P09936 1-223): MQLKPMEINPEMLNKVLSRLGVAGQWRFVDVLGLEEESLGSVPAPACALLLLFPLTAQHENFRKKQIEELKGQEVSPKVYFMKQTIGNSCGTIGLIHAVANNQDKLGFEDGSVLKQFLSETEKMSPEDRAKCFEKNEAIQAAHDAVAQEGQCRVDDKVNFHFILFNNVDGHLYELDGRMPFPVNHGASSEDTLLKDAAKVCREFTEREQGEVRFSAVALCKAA
Method: FIG. 6 is a composite figure showing that C527 is a pan-deubiqutinating enzyme inhibitor […]. Ubiquitin-AMC assay was performed using purified (FIG. 6A) USP12/UAF1/WDR20 (FIG. 6B) USP5 and (FIG. 6C) UCH-L1. Enzymes were incubated with DMSO or C527 at indicated concentrations for 3 h, followed by the addition of Ub-AMC at 0.5 μM final concentration. The fluorescence at […] was measured to indicate the enzymatic activity. FIG. 6D is a summary showing the IC50 of C527 against the indicated enzymes.
The in vitro enzymatic assays were performed using purified proteins from Sf9 cells as described previously (Cohn et al.). The assays using ubiquitin-AMC (Ub-7-amido-4-methylcoumarin; Boston Biochem) as substrate was carried out in a reaction buffer containing 20 mM HEPES-KOH (pH 7.8), 20 mM NaCl, 0.1 mg/ml ovalbumin, 0.5 mM EDTA and 10 mM dithiothreitol. The fluorescence was measured by FluoStar Galaxy Fluorometer (BMG Labtech). For the Ub-vinylsulfone (VS) assay, the proteins were incubated with Ub-VS at 0.5 μM final concentration for 1 h at 30° C., followed by the immunoblotting analysis.
To examine the specificity of C527 in USP1/UAF1 inhibition, its ability to inhibit other DUB enzymes in vitro was examined. […] Moreover, the active complex of USP12 contains an additional WD40 subunit (WDR20). […]

[1] = system: FANCD2-Ub and FANCI-Ub levels in HeLa cells; test: cell-based assay of monoubiquitinated FANCD2 and FANCI levels by immunoblotting; parameters: species or system human; settings: eight hours, increasing concentrations, FIG. 3
Method: Candidate USP1 inhibitors from initial and secondary screens were then used in cell-based assays to look for USP1 inhibition in vivo using levels of FANCD2-Ub and PCNA-Ub as biomarkers for inhibition. For the cell-based assay, cells were treated with the candidate compounds and levels of monoubiquitinated FANCD2 and PCNA were tested both with and without DNA damage. USP1 inhibition was detected as high level of endogenous monoubiquitinated FANCD2 and PCNA. For this assay HeLa and HEK293T cells were treated with selected concentrations of these compounds and grown in Dulbecco's modified Eagle's medium supplemented with 15% heat-inactivated fetal calf serum in a humidified 5% CO2 incubator at 37° C. Damage was induced by both UV irradiation using Stratalinker (Stratagene) and treatment with mitomycin C (MMC, Sigma). After cell lysis, levels of monoubiquitinated FANCD2 and PCNA in whole cell lysate was tested by immunoblotting with anti-FANCD2 antibody (sc-20022; Santa Cruz Biotechnology) and anti-PCNA antibody (sc-56; Santa Cruz Biotechnology). Protection from chromosome aberrations were also tested in UV/MMC-damaged cells treated with candidate USP1 inhibitors using standard chromosome breakage assay. Yang et al. (2001) Blood 98:3435-40. […]

HeLa cells = test: camptothecin-induced RAD51 and H2AX foci formation, immunofluorescence; format: cell-based, human; settings: camptothecin for 1 hr after pre-treatment; FIG. 8C
Method: FIG. 8 is a composite figure showing that C527 inhibits homologous recombination repair. […] U2OS-DRGFP cells were transfected with I-SCE-I and then exposed to C527 at the indicated concentration for 24 h. Cells were then subjected to flow cytometry analysis. The percentage of GFP positive cells was normalized by solvent vehicle treated group. […] HeLa cells, integrated with the NHEJ reporter, were treated with C527 and analyzed as described in (FIG. 8A). […] HeLa cells were pre-treated with DMSO or C527 at the indicated concentration and then exposed to camptothecin (CPT) for 1 hr. RAD51 foci were detected using immunofluorescence.
Cells were pre-extracted with extraction buffer (0.25% Triton-X100 in 200 mM HEPES at pH 7.4, 50 mM NaCl, 3 mM MgCl2 and 300 mM sucrose) on ice for 2 min prior to fixation with 4% paraformaldehyde. RAD51 foci were detected using anti-RAD51 antibody (Santa Cruz Biotechnology) and visualized using Alexa Fluor 488-conjugated secondary antibody. The quantification of cells with RAD51 foci was performed by counting the number of cells with RAD51 foci. At least 200 cells were counted from each sample. Data are represented as mean±SD from three independent experiments.
Camptothecin activated the assembly of RAD51 and H2AX foci.

USP1 = target: T2, USP1 (Homo sapiens, UniProt O94782); test: Ub-vinyl sulfone conjugation of USP1 in lysates of compound-treated HeLa cells; format: cell-based
T2 construct: endogenous in cells; host or cells: HeLa
Method: In one set of experiments, HeLa cells were incubated in the presence of 50 μM of selected inhibitors including the compound of Formula III (933) and the compound of Formula IV (527) for 2, 4, or 6 hours, followed by cell lysis. […] Lysates were incubated with the Ub-vinyl sulfone (Ub-Vs) reagent for 40 minutes. Proteins were electrophoresed on SDS-PAGE, transferred to nitrocellulose, and immunoblotted with the anti-USP1 antibody.
HeLa cells were incubated with the compound of Formula IV (527) for eight hours, followed by cell lysis and incubation of protein extract with Ub-vinyl sulfone.

T2 sequence (O94782 whole entry): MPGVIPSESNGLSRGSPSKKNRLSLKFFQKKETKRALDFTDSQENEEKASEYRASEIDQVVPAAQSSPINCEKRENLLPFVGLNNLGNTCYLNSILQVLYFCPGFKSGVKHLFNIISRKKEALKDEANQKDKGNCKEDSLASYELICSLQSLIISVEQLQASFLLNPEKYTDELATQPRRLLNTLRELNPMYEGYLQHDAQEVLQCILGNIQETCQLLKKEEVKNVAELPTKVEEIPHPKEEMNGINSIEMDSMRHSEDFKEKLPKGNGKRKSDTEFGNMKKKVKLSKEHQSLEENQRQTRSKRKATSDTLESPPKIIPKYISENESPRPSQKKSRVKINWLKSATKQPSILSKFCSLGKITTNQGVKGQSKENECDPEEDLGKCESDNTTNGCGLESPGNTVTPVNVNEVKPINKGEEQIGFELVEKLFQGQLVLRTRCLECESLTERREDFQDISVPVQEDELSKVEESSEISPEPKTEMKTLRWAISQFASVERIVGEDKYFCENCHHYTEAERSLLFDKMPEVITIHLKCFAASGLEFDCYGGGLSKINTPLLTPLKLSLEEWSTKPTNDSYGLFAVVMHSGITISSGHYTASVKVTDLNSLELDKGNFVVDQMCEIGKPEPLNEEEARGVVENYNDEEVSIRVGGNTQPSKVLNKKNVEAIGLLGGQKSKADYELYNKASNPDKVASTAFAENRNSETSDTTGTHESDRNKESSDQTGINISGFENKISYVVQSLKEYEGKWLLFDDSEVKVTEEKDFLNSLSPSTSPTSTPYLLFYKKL
T2 sequence (Q8TAF3 whole entry partner): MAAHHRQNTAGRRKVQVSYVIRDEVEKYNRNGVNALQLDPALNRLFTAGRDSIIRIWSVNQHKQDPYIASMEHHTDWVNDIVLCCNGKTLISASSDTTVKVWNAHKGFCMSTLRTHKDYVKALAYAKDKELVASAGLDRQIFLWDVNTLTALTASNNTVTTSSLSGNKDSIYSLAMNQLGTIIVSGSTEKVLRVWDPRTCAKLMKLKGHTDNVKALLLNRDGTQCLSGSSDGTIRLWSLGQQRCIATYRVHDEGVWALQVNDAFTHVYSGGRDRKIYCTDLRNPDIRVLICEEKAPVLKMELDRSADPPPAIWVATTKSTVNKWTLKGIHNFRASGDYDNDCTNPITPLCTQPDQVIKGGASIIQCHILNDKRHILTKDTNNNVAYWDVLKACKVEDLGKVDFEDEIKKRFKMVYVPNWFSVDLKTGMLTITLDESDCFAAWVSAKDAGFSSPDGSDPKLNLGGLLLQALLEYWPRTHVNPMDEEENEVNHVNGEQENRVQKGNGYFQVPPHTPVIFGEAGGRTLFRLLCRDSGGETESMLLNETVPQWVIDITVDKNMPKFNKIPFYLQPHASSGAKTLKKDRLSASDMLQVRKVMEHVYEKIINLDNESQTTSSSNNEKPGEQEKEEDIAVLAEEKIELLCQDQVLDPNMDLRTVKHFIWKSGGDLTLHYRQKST

## O=C1c2ccccc2C(=O)c2oc(-c3ccc(F)cc3)nc21 [Formula IV (527)]
UCH-L1
  inhibitory effect on UCH-L1: considerably less inhibitory effect
[1]
  FANCD2-Ub levels: dose-dependent increase
  FANCI-Ub levels: dose-dependent increase
HeLa cells
  H2AX foci formation: non-detectable effect
  RAD51 foci formation: inhibited RAD51 foci formation
USP1; HeLa cells incubated eight hours, increasing concentrations, FIG. 3
  USP1 deubiquitinase activity (Ub-vinyl sulfone): dose-dependent blockade
USP1; HeLa cells, 50 μM inhibitor for 2, 4, or 6 hours, lysates with Ub-Vs 40 minutes, FIG. 2
  Ub-Vs conjugation of USP1 / deubiquitinase activity: potent inhibitor of deubiquitinase activity
